# Test results taken from PubChem BioAssay AID1259407 (Chemical Carcinogenesis Research Information System (CCRIS), 2018).
# Active and inactive are the calls of the source. How the calls were made is not given here.
# Tested on: CCRIS mutagenicity, Ames/micronucleus/aberration tests
# Assay: CCRIS mutagenicity studies
# [1] = Test System: AMES SALMONELLA TYPHIMURIUM, Strain/Indicator: TA97A, Metabolic Activation: NONE, Method: STANDARD PLATE
# [2] = Test System: AMES SALMONELLA TYPHIMURIUM, Strain/Indicator: TA97A, Metabolic Activation: RAT, LIVER, S-9, AROCLOR 1254, Method: STANDARD PLATE
# [3] = Test System: AMES SALMONELLA TYPHIMURIUM, Strain/Indicator: TA98, Metabolic Activation: NONE, Method: STANDARD PLATE
# [4] = Test System: AMES SALMONELLA TYPHIMURIUM, Strain/Indicator: TA98, Metabolic Activation: RAT, LIVER, S-9, AROCLOR 1254, Method: STANDARD PLATE
# [5] = Test System: AMES SALMONELLA TYPHIMURIUM, Strain/Indicator: TA100, Metabolic Activation: NONE, Method: STANDARD PLATE
# [6] = Test System: AMES SALMONELLA TYPHIMURIUM, Strain/Indicator: TA100, Metabolic Activation: RAT, LIVER, S-9, AROCLOR 1254, Method: STANDARD PLATE
# [7] = Test System: AMES SALMONELLA TYPHIMURIUM, Strain/Indicator: TA102, Metabolic Activation: NONE, Method: STANDARD PLATE
# [8] = Test System: AMES SALMONELLA TYPHIMURIUM, Strain/Indicator: TA102, Metabolic Activation: RAT, LIVER, S-9, AROCLOR 1254, Method: STANDARD PLATE
# [9] = Test System: AMES SALMONELLA TYPHIMURIUM, Strain/Indicator: TA1535, Metabolic Activation: NONE, Method: STANDARD PLATE
# [10] = Test System: AMES SALMONELLA TYPHIMURIUM, Strain/Indicator: TA1535, Metabolic Activation: RAT, LIVER, S-9, AROCLOR 1254, Method: STANDARD PLATE
# [11] = Test System: AMES SALMONELLA TYPHIMURIUM, Strain/Indicator: TA1537, Metabolic Activation: NONE, Method: STANDARD PLATE
# [12] = Test System: AMES SALMONELLA TYPHIMURIUM, Strain/Indicator: TA1537, Metabolic Activation: RAT, LIVER, S-9, AROCLOR 1254, Method: STANDARD PLATE
# [13] = Test System: AMES SALMONELLA TYPHIMURIUM, Strain/Indicator: TA1538, Metabolic Activation: NONE, Method: STANDARD PLATE
# [14] = Test System: AMES SALMONELLA TYPHIMURIUM, Strain/Indicator: TA1538, Metabolic Activation: RAT, LIVER, S-9, AROCLOR 1254, Method: STANDARD PLATE
# [15] = Test System: AMES SALMONELLA TYPHIMURIUM, Strain/Indicator: TA98, Metabolic Activation: NONE, Method: PREINCUBATION
# [16] = Test System: Ames Salmonella typhimurium, Strain/Indicator: TA98, Metabolic Activation: None, Method: Preincubation
smiles,measurement,setting,value
CC(O)/C(=C(\c1ccccc1)c1ccc(OCCN(C)C)cc1)c1ccccc1 (centres undefined),mutagenic call,"Test System: CHINESE HAMSTER V-79, Strain/Indicator: V79HHST (HPRT)/6-THIOGUANINE, Metabolic Activation: NONE",inactive; negative
same,mutagenic call,"Test System: CHINESE HAMSTER V-79, Strain/Indicator: V79RHST (HPRT)/6-THIOGUANINE, Metabolic Activation: NONE",active; positive
O=C(O)c1cc(O)c2c(c1)C(=O)c1cccc(O)c1C2=O,mutagenic call,[1],inactive; negative
same,mutagenic call,[2],inactive; negative
same,mutagenic call,[3],inactive; negative
same,mutagenic call,[4],inactive; negative
same,mutagenic call,[5],inactive; negative
same,mutagenic call,[6],inactive; negative
same,mutagenic call,[7],inactive; negative
same,mutagenic call,[8],inactive; negative
same,mutagenic call,[9],inactive; negative
same,mutagenic call,[10],inactive; negative
same,mutagenic call,[11],inactive; negative
same,mutagenic call,[12],inactive; negative
same,mutagenic call,[13],inactive; negative
same,mutagenic call,[14],inactive; negative
same,mutagenic call,"Test System: Ames Salmonella typhimurium, Strain/Indicator: TA102, Metabolic Activation: None, Method: Preincubation",active; positive
same,mutagenic call,"Test System: Ames Salmonella typhimurium, Strain/Indicator: TA102, Metabolic Activation: Rat, Liver, S-9, Aroclor 1254 in 0.154 M KCl, Method: Preincubation",active; positive
same,mutagenic call,"Test System: MOUSE LYMPHOMA, Strain/Indicator: L5178Y (TK+/TK-), Metabolic Activation: NONE, Method: SUSPENSION/PLATE",inactive; negative
same,mutagenic call,"Test System: MOUSE LYMPHOMA, Strain/Indicator: L5178Y (TK+/TK-), Metabolic Activation: RAT, LIVER, S-9, AROCLOR 1254, Method: SUSPENSION/PLATE",inactive; negative
C=CC(=O)N(CC1CO1)CC1CO1 (centres undefined),mutagenic call,[15],active; positive
same,mutagenic call,[3],active; positive
same,mutagenic call,"Test System: AMES SALMONELLA TYPHIMURIUM, Strain/Indicator: TA98, Metabolic Activation: RAT, LIVER, S-9, AROCLOR 1254, Method: PREINCUBATION",inactive; negative
same,mutagenic call,[4],active; positive
same,mutagenic call,"Test System: AMES SALMONELLA TYPHIMURIUM, Strain/Indicator: TA100, Metabolic Activation: NONE, Method: PREINCUBATION",active; positive
same,mutagenic call,[5],active; positive
same,mutagenic call,"Test System: AMES SALMONELLA TYPHIMURIUM, Strain/Indicator: TA100, Metabolic Activation: RAT, LIVER, S-9, AROCLOR 1254, Method: PREINCUBATION",active; positive
same,mutagenic call,[6],active; positive
ClC(Cl)(Cl)c1nc(-c2ccc3c(c2)OCO3)nc(C(Cl)(Cl)Cl)n1,mutagenic call,"End Point: In vitro chromosomal aberrations, Test System: Chinese hamster lung (CHL/IU) cells, Metabolic Activation: Rat, Liver, S-9, Phenobarbital and 5,6-benzoflavone",active; positive (structural changes and ploidy). ploidy response weak and not dose rela
same,mutagenic call,[16],inactive; negative
same,mutagenic call,"Test System: Ames Salmonella typhimurium, Strain/Indicator: TA98, Metabolic Activation: Rat, Liver, S-9, Phenobarbital and 5,6-benzoflavone, Method: Preincubation",inactive; negative
same,mutagenic call,"Test System: Ames Salmonella typhimurium, Strain/Indicator: TA100, Metabolic Activation: None, Method: Preincubation",active; positive
same,mutagenic call,"Test System: Ames Salmonella typhimurium, Strain/Indicator: TA100, Metabolic Activation: Rat, Liver, S-9, Phenobarbital and 5,6-benzoflavone, Method: Preincubation",active; positive
same,mutagenic call,"Test System: Ames Salmonella typhimurium, Strain/Indicator: TA1535, Metabolic Activation: None, Method: Preincubation",inactive; negative
same,mutagenic call,"Test System: Ames Salmonella typhimurium, Strain/Indicator: TA1535, Metabolic Activation: Rat, Liver, S-9, Phenobarbital and 5,6-benzoflavone, Method: Preincubation",active; positive
same,mutagenic call,"Test System: Ames Salmonella typhimurium, Strain/Indicator: TA1537, Metabolic Activation: None, Method: Preincubation",inactive; negative
same,mutagenic call,"Test System: Ames Salmonella typhimurium, Strain/Indicator: TA1537, Metabolic Activation: Rat, Liver, S-9, Phenobarbital and 5,6-benzoflavone, Method: Preincubation",inactive; negative
same,mutagenic call,"Test System: E. coli, Strain/Indicator: WP2uvrA/pKM101, Metabolic Activation: None, Method: Preincubation",inactive; negative
same,mutagenic call,"Test System: E. coli, Strain/Indicator: WP2uvrA/pKM101, Metabolic Activation: Rat, Liver, S-9, Phenobarbital and 5,6-benzoflavone, Method: Preincubation",inactive; negative
CCCCOCN(C(=O)CCl)c1c(CC)cccc1CC,mutagenic call,[5],inactive; negative
same,mutagenic call,"Test System: AMES SALMONELLA TYPHIMURIUM, Strain/Indicator: TA100, Metabolic Activation: S-9 MIX, Method: STANDARD PLATE",active; positive
same,mutagenic call,"Test System: Ames Salmonella typhimurium, Strain/Indicator: TA97, Metabolic Activation: None, Method: Suspension",inactive; negative
same,mutagenic call,"Test System: Ames Salmonella typhimurium, Strain/Indicator: TA97, Metabolic Activation: Rat, Liver, S-9, Aroclor 1254 (10% v/v), Method: Preincubation",inactive; negative
same,mutagenic call,[16],inactive; negative
same,mutagenic call,"Test System: Ames Salmonella typhimurium, Strain/Indicator: TA98, Metabolic Activation: Rat, Liver, S-9, Aroclor 1254 (10% v/v), Method: Suspension",inactive; negative
same,mutagenic call,"Test System: Ames Salmonella typhimurium, Strain/Indicator: TA100, Metabolic Activation: None, Method: Suspension",inactive; negative
same,mutagenic call,"Test System: Ames Salmonella typhimurium, Strain/Indicator: TA100, Metabolic Activation: Rat, Liver, S-9, Aroclor 1254 (10% v/v), Method: Suspension",inactive; negative
Cn1c(N)nc2c3ccc(=O)[nH]c3ccc21,mutagenic call,[15],active; positive
same,mutagenic call,[3],active; positive
same,mutagenic call,"Test System: AMES SALMONELLA TYPHIMURIUM, Strain/Indicator: TA98, Metabolic Activation: RAT, LIVER, S-9, AROCLOR 1254 (0.5-3 MG/ML), Method: PREINCUBATION",active; positive
same,mutagenic call,[4],active; positive
O=[N+]([O-])c1ccc2snc(Cl)c2c1,mutagenic call,[5],active; positive
O=C(O)[C@H]1OC(Oc2ccc3cc4ccc5cccc6ccc(c3c2)c4c56)[C@H](O)[C@@H](O)[C@@H]1O (some centres undefined),mutagenic call,[15],inactive; negative
same,mutagenic call,"Test System: AMES SALMONELLA TYPHIMURIUM, Strain/Indicator: TA98, Metabolic Activation: RAT, LUNG, S-9, Method: PREINCUBATION",inactive; negative
Cc1ccc(N)cc1Cl,mutagenic call,[3],inactive; negative
same,mutagenic call,[4],inactive; negative
same,mutagenic call,[5],inactive; negative
same,mutagenic call,[6],inactive; negative
same,mutagenic call,[9],inactive; negative
same,mutagenic call,[10],inactive; negative
same,mutagenic call,[11],inactive; negative
same,mutagenic call,[12],inactive; negative
same,mutagenic call,[13],inactive; negative
same,mutagenic call,[14],inactive; negative
same,mutagenic call,"Test System: CHINESE HAMSTER OVARY, Strain/Indicator: CHO-K1-BH4 (HPRT)/6-THIOGUANINE, Metabolic Activation: NONE",inactive; negative
same,mutagenic call,"Test System: CHINESE HAMSTER OVARY, Strain/Indicator: CHO-K1-BH4 (HPRT)/6-THIOGUANINE, Metabolic Activation: RAT, LIVER, S-9, AROCLOR 1254",inactive; negative
CCOCC(=O)O,mutagenic call,[1],inactive; negative
same,mutagenic call,[2],inactive; negative
same,mutagenic call,[3],inactive; negative
same,mutagenic call,[4],inactive; negative
same,mutagenic call,[5],inactive; negative
same,mutagenic call,[6],inactive; negative
same,mutagenic call,[7],inactive; negative
same,mutagenic call,[8],inactive; negative
COc1ccc(N=Nc2ccc(N(C)C)cc2)cc1,mutagenic call,[3],active; positive
same,mutagenic call,"Test System: AMES SALMONELLA TYPHIMURIUM, Strain/Indicator: TA98, Metabolic Activation: RAT LIVER S-9, AROCLOR 1254, Method: STANDARD PLATE",active; positive
same,mutagenic call,[13],active; positive
same,mutagenic call,"Test System: AMES SALMONELLA TYPHIMURIUM, Strain/Indicator: TA1538, Metabolic Activation: RAT LIVER S-9, AROCLOR 1254, Method: STANDARD PLATE",active; positive
N[C@@H](CSC(F)(F)C(F)(F)C(F)F)C(=O)O,mutagenic call,"Test System: AMES SALMONELLA TYPHIMURIUM, Strain/Indicator: TA100, Metabolic Activation: RAT, KIDNEY, S-9, AROCLOR 1254, Method: STANDARD PLATE",inactive; negative
